Results on eleven molecules are retold here after patent US20120108422A1, “Antifungal 1,2,4-triazolyl Derivatives” (BASF SE, priority 2009, published 2012).

A short description of this data set: physchem.
As usually defined, the logP is the decadic logarithm of the partition coefficient of the neutral form, usually between octanol and water. A lower logP goes with a more hydrophilic compound. Molecule `CC(C)(C)C(O)(CCCCc1ccccc1F)Cn1nc[nH]c1=S` (centres unmarked) [Example 19, 1-[2-tert-butyl-6-(2-fluorophenyl)-2-hydroxyhexyl]-1H-1,2,4-triazole-5(4H)-thione] came in with a logP of 3.4. With `CC(C)(C)C(O)(CCCCc1ccccc1)Cn1nc[nH]c1=S` (centres unmarked) [Example 16, 1-[2-tert-butyl-6-phenyl-2-hydroxyhexyl]-1H-1,2,4-triazole-5(4H)-thione] the figure was 3.6; with `CC(Cc1ccc(F)cc1F)CC(O)(Cn1nc[nH]c1=S)C(C)(C)C` (centres unmarked) [Example 2, 2-[2-tert-butyl-5-(2,4-difluorophenyl)-2-hydroxy-4-methyl-pentyl]-2,4-dihydro-[1,2,4]triazole-3-thione], 3.8; with `CC(C)(C)C(O)(CCCCc1ccc(Cl)cc1Cl)Cn1nc[nH]c1=S` (centres unmarked) [Example 20, 1-[2-tert-butyl-6-(2,4-dichlorophenyl)-2-hydroxyhexyl]-1H-1,2,4-triazole-5(4H)-thione], 4.7. With `CC(C)(C)C(O)(CCCCCc1ccccc1F)Cn1nc[nH]c1=S` (centres unmarked) [Example 22, 1-[2-tert-butyl-7-(2-fluorophenyl)-2-hydroxyheptyl]-1H-1,2,4-triazole-5(4H)-thione] the figure was 4.2; with `CC(C)(C)C(O)(CCCCc1ccccc1Cl)Cn1nc[nH]c1=S` (centres unmarked) [Example 18, 1-[2-tert-butyl-6-(2-chlorophenyl)-2-hydroxyhexyl]-1H-1,2,4-triazole-5(4H)-thione], 4; with `CC(C)(C)C(O)(CCCCCc1ccc(Cl)cc1)Cn1nc[nH]c1=S` (centres unmarked) [Example 23, 1-[2-tert-butyl-7-(4-chlorophenyl)-2-hydroxyheptyl]-1H-1,2,4-triazole-5(4H)-thione], 4.4. As to `CC(C)(C)C(O)(CCCc1ccc(F)cc1F)Cn1nc[nH]c1=S` (centres unmarked) [Example 10, 2-[2-tert-butyl-5-(2,4-difluoro-phenyl)-2-hydroxy-pentyl]-2,4-dihydro-[1,2,4]triazole-3-thione], the log partition coefficient (logP) is 3.3. Take `CC(C)(C)C(O)(CCCCCc1ccc(F)cc1)Cn1nc[nH]c1=S` (centres unmarked) [Example 21, 1-[2-tert-butyl-7-(4-fluorophenyl)-2-hydroxyheptyl]-1H-1,2,4-triazole-5(4H)-thione]: the logP was 4.

For the molecule `CC(C)(C)C(O)(CCCCc1ccc(Cl)cc1)Cn1nc[nH]c1=S` (centres unmarked) [Example 17, 1-[2-tert-butyl-6-(4-chlorophenyl)-2-hydroxyhexyl]-1H-1,2,4-triazole-5(4H)-thione], the logP is 4.2. Turning to `CC(C)(C)C(O)(CCCCc1ccc(F)cc1)Cn1nc[nH]c1=S` (centres unmarked) [Example 15, 1-[2-tert-Butyl-6-(4-fluorophenyl)-2-hydroxyhexyl]-1H-1,2,4-triazole-5(4H)-thione], the logP worked out at 3.7.
